The subject of the assay is R223X stop codon in the mutated luciferase gene, ADXC8 luciferase reporter cell line. Kind of assay: cells. Type of assay: cell-based. To be noted: for Emax / EC (100% of 200 uM G418 response): 24 h; for Emax: read-out: Fold Over Control, maximum fold response relative to 200 μM G418; for Emax / EC (100% of 200 uM G418 response) / Fold Over Control / pC100%: ADXC8 cells, 24 hours; for EC (100% of 200 uM G418 response): read-out: pC100%, negative logarithm of the concentration giving the same response as 200 μM G418; for Fold Over Control: maximum fold response relative to 200 μM G418; for pC100%: negative logarithm of the concentration giving the same response as 200 μM G418.

The structures appear in SMILES notation.

For `CNC(=O)CCNc1nc(NC2CCN(C)CC2)nc2nc(C)cc(C)c12` [Example 353], the Emax is 0 to 100% and the EC (100% of 200 uM G418 response) is over 31.6 µM.

As to `Cc1cc(C)c2c(N)nc(NC[C@H]3CN(C(=O)OC(C)(C)C)CCO3)nc2n1` [Example 138], the Emax was 0 to 100% and the EC (100% of 200 uM G418 response) was over 100 µM.

For `CC(=O)Nc1cc(C#N)ccc1CN1CCC(Nc2nc(N)c3c(C)cc(C)nc3n2)CC1` [Example 511, N-(2-((4-((4-amino-5,7-dimethylpyrido[2,3-d]pyrimidin-2-yl)amino)piperidin-1-yl)methyl)-5-cyanophenyl)acetamide], the Emax was 100 to 3000% and the EC (100% of 200 uM G418 response) was 1 to 10 µM.

For `Cc1cc(C)c2c(N)nc(NCCN3CC(C(F)(F)F)C3)nc2n1` [Example 166], the Emax was in the range of 100 to 3000% and the EC (100% of 200 uM G418 response) is 10 to 100 µM.

As for `Cc1cc(C)c2c(NC3CCC3)nc(NC3CCN(C)CC3)nc2n1` [Example 321], the Emax fell in the range of 0 to 100% and the EC (100% of 200 uM G418 response) was over 31.6 µM.

`CNc1ccc(-c2ccc3c(N)nc(NC4CCN(C)CC4)nc3n2)cc1` [Example 53]: the Emax lay in the range of 100 to 3000% and the EC (100% of 200 uM G418 response) fell in the range of 1 to 10 µM.

Take `CNc1nc(N[C@@H]2C[C@@H](O)CN(C)C2)nc2nc(C)cc(C)c12` [Example 604]: the Emax fell in the range of 100 to 3000% and the EC (100% of 200 uM G418 response) fell in the range of 1 to 10 µM.

Take `CNc1nc(NCCCN2CCOCC2)nc2nc3c(c(C)c12)CCC3` [Example 296]: the EC (100% of 200 uM G418 response) is 0.1 to 1 µM.

With `Cc1cc(C)c2c(N)nc(NC3CCN(Cc4cccc(O)c4)CC3)nc2n1` [Example 506], the Emax lay in the range of 100 to 3000% and the EC (100% of 200 uM G418 response) fell in the range of 1 to 10 µM.

`Cc1cc(C)c2c(N)nc(NCCCN3CCC4(CCOCC4)C3)nc2n1` [Example 189]: the Emax fell in the range of 0 to 100% and the EC (100% of 200 uM G418 response) is over 31.6 µM.

In the case of `CNc1nc(N[C@H]2CN(C)C[C@H]2F)nc2nc(C)cc(C)c12` [Example 340], the Emax is 100 to 3000% and the EC (100% of 200 uM G418 response) was 1 to 10 µM.

Turning to `Cc1cc(C)c2c(N)nc(NC3CNC3)nc2n1` [Example 214], the Emax was 0 to 100% and the EC (100% of 200 uM G418 response) is over 31.6 µM.

Take `Cc1cc(C)c2c(N)nc(NC3CCN(C4CC4)CC3)nc2n1` [Example 146]: the Emax fell in the range of 100 to 3000% and the EC (100% of 200 uM G418 response) fell in the range of 1 to 10 µM.

Take `CN1CCC(Nc2nc(N)c3cc(C(=O)O)cnc3n2)CC1` [Example 287]: the Emax is 0 to 100% and the EC (100% of 200 uM G418 response) was over 100 µM.

As to `Cc1cc(C)c2c(N)nc(NC3CCN(Cc4ccccc4C#N)CC3)nc2n1` [Example 500], the Emax is 100 to 3000% and the EC (100% of 200 uM G418 response) fell in the range of 1 to 10 µM.

Take `CNc1nc(N[C@H]2CNCC[C@H]2O)nc2nc(C)cc(C)c12` [Example 606]: the EC (100% of 200 uM G418 response) is 1 to 10 µM.

On to `Cc1cc(C)c2c(N)nc(NC3CCN(Cc4cc(Cl)ccc4O)CC3)nc2n1` [Example 542], for which the Emax lay within 100 to 3000% and the EC (100% of 200 uM G418 response) was 1 to 10 µM.

With `Cc1cc(C)c2c(N)nc(N[C@@H]3CN[C@H](C)C3)nc2n1` [Example 348], the Emax fell in the range of 100 to 3000% and the EC (100% of 200 uM G418 response) is 10 to 100 µM.

Regarding `Cc1ccc(O)c(CN2CCC(Nc3nc(N)c4c(C)cc(C)nc4n3)CC2)c1` [Example 548], the Emax lay within 100 to 3000% and the EC (100% of 200 uM G418 response) lay in the range of 0.1 to 1 µM.

Regarding `Cc1cc(C)c2c(N)nc(NC3CC4(CNC4)C3)nc2n1` [Example 202], the Emax lay in the range of 100 to 3000% and the EC (100% of 200 uM G418 response) lay in the range of 10 to 100 µM.

For the compound `CNc1ccnc2nc(NC3CCN(C)CC3)nc(N)c12` [Example 247], the Emax lay in the range of 0 to 100% and the EC (100% of 200 uM G418 response) was over 100 µM.

Turning to `COC(=O)c1ccc2c(N)nc(NC3CCN(C)CC3)nc2n1` [Example 235, methyl 4-amino-2-((1-methylpiperidin-4-yl)amino)pyrido[2,3-d]pyrimidine-7-carboxylate], the Emax is 0 to 100% and the EC (100% of 200 uM G418 response) was over 100 µM.

Turning to `CNc1nc(N[C@H]2CN(C)C[C@H]2O)nc2nc(C)c3c(c12)CCC3` [Example 364], the Emax is 100 to 3000% and the EC (100% of 200 uM G418 response) was 1 to 10 µM.

In the case of `CN1CCC(Nc2nc(N)c3cc(-c4cncs4)cnc3n2)CC1` [Example 647], the Emax fell in the range of 100 to 3000% and the EC (100% of 200 uM G418 response) lay within 10 to 100 µM.

On to `Cc1cc(C)c2c(N)nc(NC3CCN(Cc4ccncc4Br)CC3)nc2n1` [Example 559], for which the Emax lay within 100 to 3000% and the EC (100% of 200 uM G418 response) fell in the range of 1 to 10 µM.

Turning to `CNc1nc(NC2C3CNC2C3)nc2nc(C)cc(C)c12` (single isomer, unassigned) [Example 448], the “Fold Over Control” value is “# (Fold over Ctrl ≥ 0 ≤ 1)” and the pC100% entry was “* (pC100 ≤ 4.5)”.

Consider `CN(C)Cc1ccc(-c2ccc3c(N)nc(NC4CCN(C)CC4)nc3n2)cc1` [Example 105], for which the Emax lay within 100 to 3000% and the EC (100% of 200 uM G418 response) fell in the range of 10 to 100 µM.

For `Cc1cc(C)c2c(N)nc(NCC3CN(C(=O)OC(C)(C)C)C3)nc2n1` [Example 139], the Emax lay in the range of 100 to 3000% and the EC (100% of 200 uM G418 response) lay within 10 to 100 µM.

For `CNc1cc(N[C@@H]2CCNC2)nc2nc(C)cc(C)c12` [Example 256, (R)—N^4,5,7-trimethyl-N^2-(pyrrolidin-3-yl)-1,8-naphthyridine-2,4-diamine], the EC (100% of 200 uM G418 response) fell in the range of 0.1 to 1 µM.

For the compound `Nc1nc(N)c2nc(-c3ccccc3)c(N)nc2n1` [triamterene, reference compound], the Emax fell in the range of 0 to 100% and the EC (100% of 200 uM G418 response) was over 100 µM. Besides, the pC100% response entry (assayed at a concentration of 300 μM, C100% = concentration giving the same response as 200 μM G418) is “not reached”.

As to `COCc1cnc2nc(NC3CCN(C)CC3)nc(N)c2c1` [Example 242, 6-(methoxymethyl)-N^2-(1-methylpiperidin-4-yl)pyrido[2,3-d]pyrimidine-2,4-diamine], the Emax lay within 0 to 100% and the EC (100% of 200 uM G418 response) was over 100 µM.

Consider `CN1CCC(Nc2nc(N)c3ccc(-c4ccc(Cl)cc4)nc3n2)CC1` [Example 96], for which the EC (100% of 200 uM G418 response) fell in the range of 10 to 100 µM.

As for `Cc1cc(C)c2c(N)nc(N[C@@H]3CCCCNC3)nc2n1` [Example 313], the Emax was 100 to 3000% and the EC (100% of 200 uM G418 response) was 1 to 10 µM.

For the compound `COCc1ccnc2nc(NC3CCN(C)CC3)nc(N)c12` [Example 248, 5-(methoxymethyl)-N^2-(1-methylpiperidin-4-yl)pyrido[2,3-d]pyrimidine-2,4-diamine], the Emax was in the range of 0 to 100% and the EC (100% of 200 uM G418 response) is over 100 µM.

`COCC1CN(CCCNc2nc(N)c3c(C)cc(C)nc3n2)C1` [Example 188]: the Emax was in the range of 0 to 100% and the EC (100% of 200 uM G418 response) is over 31.6 µM.

On to `Cc1cc(C)c2c(N)nc(N[C@H]3CCNC[C@@H]3F)nc2n1` [Example 590], for which the EC (100% of 200 uM G418 response) fell in the range of 1 to 10 µM.

`CN1CCC(Nc2nc(N)c3cc(-c4cnn(C)c4)cnc3n2)CC1` [Example 679]: the Emax was in the range of 0 to 100% and the EC (100% of 200 uM G418 response) was over 100 µM.

With `CN1CCC(Nc2nc(N)c3ccc(-c4ccn(C)n4)nc3n2)CC1` [Example 79], the Emax was 0 to 100% and the EC (100% of 200 uM G418 response) is over 100 µM.

Regarding `Cc1cc(C)c2c(N)nc(NCC3CC4(CNC4)C3)nc2n1` [Example 208], the Emax is 0 to 100% and the EC (100% of 200 uM G418 response) was over 31.6 µM.

With `Cc1cc(C)c2c(N)nc(NC3CCN(Cc4c(C)cccc4C)CC3)nc2n1` [Example 468], the Emax lay within 100 to 3000% and the EC (100% of 200 uM G418 response) is 1 to 10 µM.

As for `Cc1cc(C)c2c(N)nc(NC3CCN(Cc4ncc[nH]4)CC3)nc2n1` [Example 487], the Emax is 100 to 3000% and the EC (100% of 200 uM G418 response) lay within 1 to 10 µM.

For `CN1CCC(Nc2nc(N)c3ccc(-c4cccc(F)c4)nc3n2)CC1` [Example 62], the Emax lay within 100 to 3000% and the EC (100% of 200 uM G418 response) is 1 to 10 µM.

With `CCN1C[C@@H](F)[C@@H](Nc2nc(NC)c3c(C)cc(C)nc3n2)C1` [Example 628], the EC (100% of 200 uM G418 response) lay in the range of 1 to 10 µM.

In the case of `Cc1cc(C)c2c(NC(C)C)nc(N[C@@H]3CCNC3)nc2n1` [Example 323], the Emax fell in the range of 100 to 3000% and the EC (100% of 200 uM G418 response) was 1 to 10 µM.

Turning to `Cc1cc(C)c2c(NC3CC3)nc(N[C@@H]3CCNC3)nc2n1` [Example 332], the Emax was 100 to 3000% and the EC (100% of 200 uM G418 response) was in the range of 1 to 10 µM.

For `CNc1nc(N[C@@H]2CN[C@@H](C)C2)nc2nc(C)cc(C)c12` [Example 374], the Emax lay within 100 to 3000% and the EC (100% of 200 uM G418 response) lay within 10 to 100 µM.

As to `CN1CCC(Nc2nc(N)c3ccc(-c4cnn(C)c4)nc3n2)CC1` [Example 26, 7-(1-methyl-1H-pyrazol-4-yl)-N^2-(1-methylpiperidin-4-yl)pyrido[2,3-d]pyrimidine-2,4-diamine], the Emax lay within 0 to 100% and the EC (100% of 200 uM G418 response) is over 100 µM.

For `Cc1cc(C)c2c(N)nc(NC3CCN(Cc4ccc(S(C)(=O)=O)cc4)CC3)nc2n1` [Example 497], the Emax was in the range of 100 to 3000% and the EC (100% of 200 uM G418 response) fell in the range of 10 to 100 µM.

Take `Cc1cc(C)c2c(N)nc(NC3CCN(CC(F)(F)F)CC3)nc2n1` [Example 178]: the Emax was 0 to 100% and the EC (100% of 200 uM G418 response) is over 100 µM.

For the compound `Cc1nc2nc(NC3CCN(Cc4cc(F)cc(F)c4O)CC3)nc(N)c2c2c1CCC2` [Example 536], the Emax was 100 to 3000% and the EC (100% of 200 uM G418 response) lay within 1 to 10 µM.

Take `CNc1nc(NC2CNCC2C#N)nc2nc(C)cc(C)c12` (single isomer, unassigned) [Example 453]: the “Fold Over Control” value was “## (Fold over Ctrl > 1 ≤ 30)” and the pC100% entry is “+ (pC100% > 4.0 ≤ 5.0)”.

Turning to `CC(CO)c1cnc2nc(NC3CCN(C)CC3)nc(N)c2c1` (stereo not drawn) [Example 286], the Emax fell in the range of 0 to 100% and the EC (100% of 200 uM G418 response) is over 100 µM.

The values above are taken from patent US20260234144A1 (TAY THERAPEUTICS LIMITED, priority 2023, published 2026).
